According to article PMC7217877, “N-AS-triggered SPMs are direct regulators of microglia in a model of Alzheimer’s disease” (Nature Communications, 2020):
Where “and” joins values, the source holds several entries; their conditions need not be identical. Equal entries are not always repeated. Where two headings read alike, the source gives them in different places.

How the values were obtained:
single-dose plasma PK = format: in vivo, C57BL/6 mice; conditions: mouse; for AUC(0-inf): read-out: AUCinf (Plasma); for AUC(0-t): read-out: AUClast (Plasma)
Method: C57BL/6 mice were administered N-AS (Sigma-Aldrich, 01912) at doses of 1 mg kg^−1 (i.v.) or 10 mg kg^−1 (p.o.). Venous blood samples were collected at 5, 15, and 30 min, and 1, 2, 4, 8, and 24 h postdose. A 30 μl of plasma was separated from whole blood by centrifugation and stored at −80 °C until analysis. Also, brain samples were collected at 1, 2, 4, and 24 h postdose and heart, liver, and kidney samples were collected at 24 h postdose, thoroughly rinsed with physiological saline and weighed. Twenty percentage of tissue homogenates were prepared by homogenizing the tissue samples with four volumes of saline. A 30 μl aliquot of plasma or a 50 μl aliquot of tissue homogenates were deproteinized by addition of 200 μl cold methanol (containing naringenin as internal standard at 20 ng ml^−1) and centrifuged at 15,974×g for 10 min. A 10 μl aliquot of the supernatant was injected into Agilent 6470 LC-MS/MS system. Separation was performed on a Synergy Polar RP column (4 μm particle size, 2.0 mm ×150 mm, Phenomenex) using a mobile phase that consisted of methanol and water (85:15, v/v) with 0.1% formic acid at a flow rate of 0.2 ml min^−1. Quantification was carried out using multiple reaction monitoring (MRM) at m/z 340.3→263.3 for N-AS and m/z 271.1→151.3 for naringenin (internal standard) in negative ionization mode and collision energy of 20 eV. p, and relative oral BA values were calculated as follows: BA% = AUCp.o. normalized by p.o. dose/AUCi.v. normalized by i.v. dose × 100.

APP/PS1 mice = assay: RNA seq of microglia from treated mice (Fig 4f-i); format: in vivo, mouse; conditions: N-AS-treated vs vehicle APP/PS1
Method: Transgenic mouse lines over-expressing the hAPP695swe (APP) and presenilin-1M146V (PS1) mutations were originated from GlaxoSmithKline (Harlow, UK)[32] and maintained as described previously. We purchased 5×FAD mice from Jackson Labs (Stock number. 34840-JAX). Because APP/PS1 and 5xFAD mice show sex differences in disease progression, we used only male mice. To examine possible therapeutic effect of N-AS and aspirin in APP/PS1 mice, the N-AS (30 mg kg^−1, Sigma-Aldrich, 01912) was injected daily s.c. for 8 weeks to 7-months-old APP/PS1 mice until the age of 9 months, and aspirin (2 mg kg^−1, Sigma-Aldrich, A5376)[33] was administrated orally to 7-months-old APP/PS1 mice for 8 weeks. […]
Total RNA was isolated in microglia derived from WT, APP/PS1, and APP/PS1 mice treated with N-AS using Trizol reagent (Invitrogen). RNA quality was assessed by Agilent 2100 bioanalyzer using the RNA 6000 Nano Chip (Agilent Technologies, Amstelveen, The Netherlands), and RNA quantification was performed using ND-2000 Spectrophotometer (Thermo Inc., DE, USA). […] Quantification was performed using the library quantification kit using a StepOne Real-Time PCR System (Life Technologies, Inc., USA). […] Then, total RNA-Seq reads were mapped using TopHat software tool in order to obtain bam file (alignment file). […]

COX2 WT = biological target: T1, COX2 WT (Homo sapiens, UniProt P35354); assay: filter binding assay of [14C] N-AS to COX2; conditions: COX2 Control; 0.2 uM (20 pmol); replicates
T1 construct: His (N); made in house
T1 sequence (P35354 18-604): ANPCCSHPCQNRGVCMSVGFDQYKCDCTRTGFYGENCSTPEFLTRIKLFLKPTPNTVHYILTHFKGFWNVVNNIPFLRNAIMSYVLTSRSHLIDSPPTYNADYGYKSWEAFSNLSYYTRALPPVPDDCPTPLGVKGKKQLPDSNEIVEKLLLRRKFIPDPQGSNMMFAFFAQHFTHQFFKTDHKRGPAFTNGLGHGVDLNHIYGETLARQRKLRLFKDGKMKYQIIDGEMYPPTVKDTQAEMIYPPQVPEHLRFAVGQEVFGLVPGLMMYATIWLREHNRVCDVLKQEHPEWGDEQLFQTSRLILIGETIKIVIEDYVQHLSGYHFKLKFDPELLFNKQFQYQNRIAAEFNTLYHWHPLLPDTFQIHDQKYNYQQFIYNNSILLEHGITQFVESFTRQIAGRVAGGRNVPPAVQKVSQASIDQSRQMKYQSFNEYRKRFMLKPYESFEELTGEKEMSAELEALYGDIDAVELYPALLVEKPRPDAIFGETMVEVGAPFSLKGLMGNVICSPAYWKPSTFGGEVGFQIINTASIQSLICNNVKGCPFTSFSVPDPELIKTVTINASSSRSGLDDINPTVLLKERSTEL

[1] = C57BL/6, plasma, iv, i.v. 1 mg/kg
[2] = C57BL/6, plasma, po, p.o. 10 mg/kg

MRT (single-dose plasma PK; [1]): 2.27 ± 0.11 h | half-life (single-dose plasma PK; [1]): 207 ± 9.6 min | AUC(0-inf) (single-dose plasma PK; [1]): 667 ± 28.8 ng·h/mL | AUC(0-t) (single-dose plasma PK; [1]): 665 ± 28.6 ng·h/mL | bioavailability (single-dose plasma PK; C57BL/6, plasma, oral, p.o. 10 mg/kg vs i.v. 1 mg/kg, read-out: BA (Bioavailability)): 8.25% | Cmax (single-dose plasma PK; [2]): 683 ± 141 ng/mL | MRT (single-dose plasma PK; [2]): 3.1 ± 0.14 h | Tmax (single-dose plasma PK; [2]): 15 min | half-life (single-dose plasma PK; [2]): 221 ± 8.4 min | AUC(0-inf) (single-dose plasma PK; [2]): 550 ± 71.3 ng·h/mL | AUC(0-t) (single-dose plasma PK; [2]): 545 ± 72.1 ng·h/mL | Co (Plasma) (single-dose plasma PK; i.v. 1 mg/kg): 854.36 ± 128.60 ng/mL | bioavailability (BA), in words (single-dose plasma PK; p.o.): low
SMILES: CCCCCCCCCCCCC/C=C/[C@@H](O)[C@H](CO)NC(C)=O [N-AS, N-((2S,3R,E)-1,3-Dihydroxyoctadec-4-en-2-yl)acetamide]
microglial gene expression pattern (RNA seq) (APP/PS1 mice): upregulation of several reactive microglial genes | binding velocity (Vbinding) (COX2 WT): 0.350 nM/min and 0.395 nM/min and 0.289 nM/min
